Data as given in patent EP4722207A1, “OXOISOINDOLINYL-SUBSTITUTED TETRAHYDROPYRIMIDINEDIONE DERIVATIVE AND USE THEREOF” (Gluetacs Therapeutics (Shanghai) Co., Ltd., priority 2023, dated 2024).

Tests used:
[1] = biological target: T1, WEE1 (Homo sapiens, UniProt P30291+Q96SW2); assay: Western-blot assay, substrate protein degradation in hPBMCs: WEE1; assay type: cell-based; conditions: 24 hours of compound treatment, 50 nM and 500 nM
T1 construct: effects of the compounds of the present disclosure on the expression of target proteins in cells; endogenous in cells; host or cells: human PBMCs (hPBMCs)
T1 sequence (P30291 whole entry): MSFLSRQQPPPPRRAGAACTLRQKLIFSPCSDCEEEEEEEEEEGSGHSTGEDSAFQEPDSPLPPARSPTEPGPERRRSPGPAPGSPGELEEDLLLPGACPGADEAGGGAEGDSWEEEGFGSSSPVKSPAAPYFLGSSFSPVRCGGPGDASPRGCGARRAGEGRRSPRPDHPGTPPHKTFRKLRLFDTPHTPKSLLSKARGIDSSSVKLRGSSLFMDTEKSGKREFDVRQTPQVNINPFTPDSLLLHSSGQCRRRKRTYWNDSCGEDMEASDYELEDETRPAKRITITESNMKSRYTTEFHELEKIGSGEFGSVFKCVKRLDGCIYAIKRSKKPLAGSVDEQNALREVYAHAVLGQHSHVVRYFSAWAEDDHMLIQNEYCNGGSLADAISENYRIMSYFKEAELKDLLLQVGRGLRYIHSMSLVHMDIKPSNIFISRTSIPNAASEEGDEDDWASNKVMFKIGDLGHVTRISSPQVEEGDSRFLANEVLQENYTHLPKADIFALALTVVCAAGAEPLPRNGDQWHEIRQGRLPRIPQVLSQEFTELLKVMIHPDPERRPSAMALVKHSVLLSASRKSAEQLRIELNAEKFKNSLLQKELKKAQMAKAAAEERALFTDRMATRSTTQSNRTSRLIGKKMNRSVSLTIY
T1 sequence (Q96SW2 whole entry): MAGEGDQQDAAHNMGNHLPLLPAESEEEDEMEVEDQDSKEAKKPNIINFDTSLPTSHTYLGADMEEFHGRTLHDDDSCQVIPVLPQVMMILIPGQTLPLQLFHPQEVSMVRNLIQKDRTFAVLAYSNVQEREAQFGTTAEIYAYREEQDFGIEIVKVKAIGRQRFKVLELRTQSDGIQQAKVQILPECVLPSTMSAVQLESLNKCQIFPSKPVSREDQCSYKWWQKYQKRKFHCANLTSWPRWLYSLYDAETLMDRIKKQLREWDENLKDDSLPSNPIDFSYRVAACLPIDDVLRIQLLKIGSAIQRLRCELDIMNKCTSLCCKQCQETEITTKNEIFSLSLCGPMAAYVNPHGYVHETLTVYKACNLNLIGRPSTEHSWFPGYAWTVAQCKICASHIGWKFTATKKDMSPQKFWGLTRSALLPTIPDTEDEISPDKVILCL
T1 sequence (Q16531 whole entry partner): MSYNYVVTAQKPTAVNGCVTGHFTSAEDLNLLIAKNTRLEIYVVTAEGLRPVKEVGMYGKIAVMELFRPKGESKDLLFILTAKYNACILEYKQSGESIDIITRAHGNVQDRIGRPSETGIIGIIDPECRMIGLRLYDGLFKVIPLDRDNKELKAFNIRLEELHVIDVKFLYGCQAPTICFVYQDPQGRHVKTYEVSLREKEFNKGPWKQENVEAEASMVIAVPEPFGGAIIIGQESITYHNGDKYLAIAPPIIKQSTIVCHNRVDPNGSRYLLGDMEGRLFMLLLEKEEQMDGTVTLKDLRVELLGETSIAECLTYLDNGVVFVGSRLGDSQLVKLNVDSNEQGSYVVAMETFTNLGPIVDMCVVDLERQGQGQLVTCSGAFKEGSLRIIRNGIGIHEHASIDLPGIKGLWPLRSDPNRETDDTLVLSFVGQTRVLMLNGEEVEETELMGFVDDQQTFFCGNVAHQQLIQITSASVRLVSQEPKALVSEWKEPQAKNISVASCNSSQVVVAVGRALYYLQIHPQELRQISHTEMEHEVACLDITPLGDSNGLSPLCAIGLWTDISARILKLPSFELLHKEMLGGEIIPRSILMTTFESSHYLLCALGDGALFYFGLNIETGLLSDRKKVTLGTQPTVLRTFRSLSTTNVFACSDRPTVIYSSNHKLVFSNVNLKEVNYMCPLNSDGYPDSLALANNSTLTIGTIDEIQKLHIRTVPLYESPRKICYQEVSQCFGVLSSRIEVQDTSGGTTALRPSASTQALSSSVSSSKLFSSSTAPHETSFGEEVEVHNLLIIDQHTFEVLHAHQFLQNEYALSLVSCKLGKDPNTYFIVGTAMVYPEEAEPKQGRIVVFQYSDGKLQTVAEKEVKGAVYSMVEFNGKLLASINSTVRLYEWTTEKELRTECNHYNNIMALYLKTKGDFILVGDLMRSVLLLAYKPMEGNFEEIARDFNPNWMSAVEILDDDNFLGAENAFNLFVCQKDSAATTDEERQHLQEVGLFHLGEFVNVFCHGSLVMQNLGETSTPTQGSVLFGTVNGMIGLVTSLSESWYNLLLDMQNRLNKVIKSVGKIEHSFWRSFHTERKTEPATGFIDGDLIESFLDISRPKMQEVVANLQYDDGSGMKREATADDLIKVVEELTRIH

[2] = biological target: T2, IKZF1 (Homo sapiens, UniProt Q13422+Q96SW2); assay: Western-blot assay, substrate protein degradation in hPBMCs: IKZF1; assay type: cell-based; conditions: 24 hours of compound treatment, 50 nM and 500 nM
T2 construct: effects of the compounds of the present disclosure on the expression of target proteins in cells; endogenous in cells; host or cells: human PBMCs (hPBMCs)
T2 sequence (Q13422 whole entry): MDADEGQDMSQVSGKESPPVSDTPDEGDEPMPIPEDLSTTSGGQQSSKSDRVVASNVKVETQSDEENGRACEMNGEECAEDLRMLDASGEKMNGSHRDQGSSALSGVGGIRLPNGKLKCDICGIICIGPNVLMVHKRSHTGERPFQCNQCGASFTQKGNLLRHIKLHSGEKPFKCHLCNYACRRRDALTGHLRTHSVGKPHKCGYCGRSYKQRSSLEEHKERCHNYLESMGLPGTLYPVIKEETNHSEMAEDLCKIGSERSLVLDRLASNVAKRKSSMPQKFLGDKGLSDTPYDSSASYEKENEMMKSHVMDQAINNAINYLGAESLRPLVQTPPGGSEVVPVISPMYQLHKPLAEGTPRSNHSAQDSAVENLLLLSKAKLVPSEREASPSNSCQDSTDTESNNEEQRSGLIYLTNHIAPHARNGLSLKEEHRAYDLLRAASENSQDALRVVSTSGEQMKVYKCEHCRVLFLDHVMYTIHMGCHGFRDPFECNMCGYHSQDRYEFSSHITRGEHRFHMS
T2 sequence (Q96SW2 whole entry): as the sequence (Q96SW2 whole entry) above
T2 sequence (Q16531 whole entry partner): as the sequence (Q16531 whole entry partner) above

[3] = biological target: T3, IKZF2 (Homo sapiens, UniProt Q96SW2+Q9UKS7); assay: Western-blot assay, substrate protein degradation in hPBMCs: IKZF2; assay type: cell-based; conditions: 24 hours of compound treatment, 50 nM and 500 nM
T3 construct: effects of the compounds of the present disclosure on the expression of target proteins in cells; endogenous in cells; host or cells: human PBMCs (hPBMCs)
T3 sequence (Q9UKS7 whole entry): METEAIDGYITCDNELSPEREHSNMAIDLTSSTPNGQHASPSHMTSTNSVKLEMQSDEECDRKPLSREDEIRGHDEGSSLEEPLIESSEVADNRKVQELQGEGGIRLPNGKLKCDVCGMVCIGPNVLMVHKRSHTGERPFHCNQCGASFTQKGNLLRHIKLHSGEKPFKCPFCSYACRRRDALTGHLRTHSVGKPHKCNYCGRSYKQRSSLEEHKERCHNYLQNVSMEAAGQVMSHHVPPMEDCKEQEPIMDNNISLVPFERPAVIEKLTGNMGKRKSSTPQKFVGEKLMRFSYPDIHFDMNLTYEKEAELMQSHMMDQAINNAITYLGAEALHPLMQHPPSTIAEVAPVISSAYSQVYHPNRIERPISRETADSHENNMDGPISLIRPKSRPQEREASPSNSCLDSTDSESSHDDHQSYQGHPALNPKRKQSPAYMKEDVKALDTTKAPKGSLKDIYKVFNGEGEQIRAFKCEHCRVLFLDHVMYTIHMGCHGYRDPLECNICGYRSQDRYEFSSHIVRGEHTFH
T3 sequence (Q96SW2 whole entry): as the sequence (Q96SW2 whole entry) above
T3 sequence (Q16531 whole entry partner): as the sequence (Q16531 whole entry partner) above

[4] = biological target: T4, IKZF3 (Homo sapiens, UniProt Q96SW2+Q9UKT9); assay: Western-blot assay, substrate protein degradation in hPBMCs: IKZF3; assay type: cell-based; conditions: 24 hours of compound treatment, 50 nM and 500 nM
T4 construct: effects of the compounds of the present disclosure on the expression of target proteins in cells; endogenous in cells; host or cells: human PBMCs (hPBMCs)

[5] = biological target: T5, CK1α (Homo sapiens, UniProt P48729+Q96SW2); assay: Western-blot assay, substrate protein degradation in hPBMCs: CK1α; assay type: cell-based; conditions: 24 hours of compound treatment, 50 nM and 500 nM
T5 construct: effects of the compounds of the present disclosure on the expression of target proteins in cells; endogenous in cells; host or cells: human PBMCs (hPBMCs)
T5 sequence (P48729 whole entry): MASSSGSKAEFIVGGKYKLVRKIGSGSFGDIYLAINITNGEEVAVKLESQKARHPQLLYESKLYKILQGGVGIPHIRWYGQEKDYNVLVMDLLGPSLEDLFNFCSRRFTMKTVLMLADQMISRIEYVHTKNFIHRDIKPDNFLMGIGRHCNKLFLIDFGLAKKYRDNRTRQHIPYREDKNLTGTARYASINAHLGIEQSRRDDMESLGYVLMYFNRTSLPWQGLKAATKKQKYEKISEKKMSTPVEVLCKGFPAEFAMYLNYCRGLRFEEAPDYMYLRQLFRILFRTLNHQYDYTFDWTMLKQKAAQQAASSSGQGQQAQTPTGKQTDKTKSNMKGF
T5 sequence (Q96SW2 whole entry): as the sequence (Q96SW2 whole entry) above
T5 sequence (Q16531 whole entry partner): as the sequence (Q16531 whole entry partner) above

[6] = biological target: T6, GSPT1 (Homo sapiens, UniProt P15170+Q96SW2); assay: Western-blot assay, substrate protein degradation in hPBMCs: GSPT1; assay type: cell-based; conditions: 24 hours of compound treatment, 50 nM and 500 nM
T6 construct: effects of the compounds of the present disclosure on the expression of target proteins in cells; endogenous in cells; host or cells: human PBMCs (hPBMCs)
T6 sequence (P15170 whole entry): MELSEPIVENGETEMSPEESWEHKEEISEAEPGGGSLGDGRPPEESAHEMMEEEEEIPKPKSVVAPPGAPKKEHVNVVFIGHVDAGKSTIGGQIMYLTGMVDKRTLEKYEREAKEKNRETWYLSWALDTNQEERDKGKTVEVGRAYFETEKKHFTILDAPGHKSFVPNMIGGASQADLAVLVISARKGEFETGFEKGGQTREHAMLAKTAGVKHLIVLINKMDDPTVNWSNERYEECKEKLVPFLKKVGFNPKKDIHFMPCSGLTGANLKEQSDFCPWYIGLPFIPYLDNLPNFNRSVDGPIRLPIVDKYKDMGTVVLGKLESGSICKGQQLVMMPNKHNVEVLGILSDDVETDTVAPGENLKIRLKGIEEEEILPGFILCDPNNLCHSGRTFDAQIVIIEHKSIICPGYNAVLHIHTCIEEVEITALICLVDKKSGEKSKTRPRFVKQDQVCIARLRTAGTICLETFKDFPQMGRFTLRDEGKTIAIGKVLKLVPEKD
T6 sequence (Q96SW2 whole entry): as the sequence (Q96SW2 whole entry) above
T6 sequence (Q16531 whole entry partner): as the sequence (Q16531 whole entry partner) above

[7] = tested on: H292; assay: Cell viability assay (CellTiter-Meiluncell Luminescent), tumor cell proliferation, H292; conditions: Homo sapiens, NCI-H292, 96 h; for inhibition at 0.01 µM: read-out: Inhibition Rate at 10 nM (%); for inhibition at 0.5 µM: read-out: Inhibition Rate at 500 nM (%)
[8] = tested on: H2228; assay: Cell viability assay (CellTiter-Meiluncell Luminescent), tumor cell proliferation, H2228; conditions: Homo sapiens, NCI-H2228, 96 h; for inhibition at 0.01 µM: read-out: Inhibition Rate at 10 nM (%); for inhibition at 0.5 µM: read-out: Inhibition Rate at 500 nM (%)
[9] = tested on: MDA-MB-231; assay: Cell viability assay (CellTiter-Meiluncell Luminescent), tumor cell proliferation, MDA-MB-231; conditions: Homo sapiens, MDA-MB-231, 96 h; for inhibition at 0.01 µM: read-out: Inhibition Rate at 10 nM (%); for inhibition at 0.5 µM: read-out: Inhibition Rate at 500 nM (%)
[10] = tested on: MV-4-11; assay: Cell viability assay (CellTiter-Meiluncell Luminescent), tumor cell proliferation, MV-4-11; conditions: Homo sapiens, MV4-11, 96 h; for inhibition at 0.01 µM: read-out: Inhibition Rate at 10 nM (%); for inhibition at 0.5 µM: read-out: Inhibition Rate at 500 nM (%)
[11] = tested on: MM.1S; assay: Cell viability assay (CellTiter-Meiluncell Luminescent), tumor cell proliferation, MM.1S; conditions: Homo sapiens, MM1.S, 96 h; for inhibition at 0.01 µM: read-out: Inhibition Rate at 10 nM (%); for inhibition at 0.5 µM: read-out: Inhibition Rate at 500 nM (%)
Experimental: The tumor cells used herein were cultured in a cell culture medium listed in table 2 at 37°C in an incubator with 5% CO2. Prior to experimentation, all cell lines used were correctly identified by STR profiling, and tested negative for mycoplasma contamination using a mycoplasma detection kit through routine screenings.
On the following day, the test compounds of the present disclosure were subjected to serial dilution. […] Subsequently, 0.5 µL of the test compound dilution was transferred into the 96-well plate containing the cells, with each well containing 100 µL of cell culture medium. […] Into the 96-well plate, the diluted test compounds and corresponding detection reagents were added, resulting in final test compound concentrations of 500 nM and 10 nM, respectively. The experimental procedure is described below using the diluted 2 µM test compound as an example.
After the cells were treated with the compounds of the present disclosure for a specified period, the cell viability assay reagent was added to the culture medium according to the kit's instructions to determine cell viability. […] All controls were treated using the same procedure as the compounds of the present disclosure. The growth inhibition curves for the compounds of the present disclosure were plotted using Prism GraphPad software, and the IC50 values were calculated therefrom.

Row | SMILES | substrate protein remaining % WEE1 [1] | substrate protein remaining % IKZF1 [2] | substrate protein remaining % IKZF2 [3] | substrate protein remaining % IKZF3 [4] | substrate protein remaining % CK1α [5] | substrate protein remaining % GSPT1 [6] | inhibition at 0.01 µM [7] [%] | inhibition at 0.5 µM [7] [%] | inhibition at 0.01 µM [8] [%] | inhibition at 0.5 µM [8] [%] | inhibition at 0.01 µM [9] [%] | inhibition at 0.5 µM [9] [%] | inhibition at 0.01 µM [10] [%] | inhibition at 0.5 µM [10] [%] | inhibition at 0.01 µM [11] [%] | inhibition at 0.5 µM [11] [%]
1 | O=C1CCN(N2Cc3cc(CNC45CC6CC(CC(O)(C6)C4)C5)ccc3C2=O)C(=O)N1 [GT-07784, 1-(5-((((1r,3s,5R,7S)-3-hydroxyadamantan-1-yl)amino)methyl)-1-oxoisoindolin-2-yl)dihydropyrimidine-2,4(1H,3H)-dione] | B (80%< substrate protein remaining %≤ 100%) | B (80%< substrate protein remaining %≤ 100%) | A (0% ≤ substrate protein remaining % ≤ 80%) | B (80%< substrate protein remaining %≤ 100%) | B (80%< substrate protein remaining %≤ 100%) | B (80%< substrate protein remaining %≤ 100%) | 20 to 40 | 20 to 40 | 25 to 30 | 30 to 40 | 18 to 25 | 25 to 40 | – | – | – | –
2 | Cc1sc2ncnc(N3CCN(Cc4ccc5c(c4)CN(N4CCC(=O)NC4=O)C5=O)CC3)c2c1C [GT-08061, 1-(5-((4-(5,6-dimethylthieno[2,3-d]pyrimidin-4-yl)piperazin-1-yl)methyl)-1-oxoisoindolin-2-yl)dihydropyrimidine-2,4(1H,3H)-dione] | B (80%< substrate protein remaining %≤ 100%) | B (80%< substrate protein remaining %≤ 100%) | A (0% ≤ substrate protein remaining % ≤ 80%) | A (0% ≤ substrate protein remaining % ≤ 80%) | B (80%< substrate protein remaining %≤ 100%) | B (80%< substrate protein remaining %≤ 100%) | – | – | 10 to 15 | 25 to 30 | 10 to 15 | 18 to 25 | – | – | – | –
3 | O=C1CCN(N2Cc3cc(CN4CCC(c5ncnc6scc(-c7ccccc7)c56)CC4)ccc3C2=O)C(=O)N1 [GT-08086, 1-(1-oxo-5-((4-(5-phenylthieno[2,3-d]pyrimidin-4-yl)piperidin-1-yl)methyl)isoindolin-2-yl)dihydropyrimidine-2,4(1H,3H)-dione] | – | – | – | – | – | – | 20 to 40 | 20 to 40 | 20 to 25 | 20 to 25 | 25 to 40 | 25 to 40 | – | – | – | –
4 | CC(C)c1cc2c(N3CCN(Cc4ccc5c(c4)C(=O)N(N4CCC(=O)NC4=O)C5=O)CC3)ncnc2s1 [GT-08093, 2-(2,4-dioxotetrahydropyrimidin-1(2H)-yl)-5-((4-(6-isopropylthieno[2,3-d]pyrimidin-4-yl)piperazin-1-yl)methyl)isoindoline-1,3-dione] | A (0% ≤ substrate protein remaining % ≤ 80%) | B (80%< substrate protein remaining %≤ 100%) | B (80%< substrate protein remaining %≤ 100%) | B (80%< substrate protein remaining %≤ 100%) | A (0% ≤ substrate protein remaining % ≤ 80%) | A (0% ≤ substrate protein remaining % ≤ 80%) | 15 to 20 | 15 to 20 | 20 to 25 | 20 to 25 | – | – | 40 to 60 | 60 to 80 | – | –
5 | O=C1CCN(N2C(=O)c3ccc(CN4CCN(c5ncnc6scc(-c7ccccc7)c56)CC4)cc3C2=O)C(=O)N1 [GT-08098, 2-(2,4-dioxotetrahydropyrimidin-1(2H)-yl)-5-((4-(5-phenylthieno[2,3-d]pyrimidin-4-yl)piperazin-1-yl)methyl)isoindoline-1,3-dione] | B (80%< substrate protein remaining %≤ 100%) | B (80%< substrate protein remaining %≤ 100%) | B (80%< substrate protein remaining %≤ 100%) | B (80%< substrate protein remaining %≤ 100%) | B (80%< substrate protein remaining %≤ 100%) | A (0% ≤ substrate protein remaining % ≤ 80%) | – | – | 10 to 15 | 25 to 30 | – | – | 18 to 25 | 18 to 25 | – | –
6 | Cc1nc(N2CCN(Cc3ccc4c(c3)C(=O)N(N3CCC(=O)NC3=O)C4=O)CC2)c2c3c(sc2n1)CCC3 [GT-08104, 2-(2,4-dioxotetrahydropyrimidin-1(2H)-yl)-5-((4-(2-methyl-6,7-dihydro-5H-cyclopenta[4,5]thieno[2,3-d]pyrimidin-4-yl)piperazin-1-yl)methyl)isoindoline-1,3-dione] | A (0% ≤ substrate protein remaining % ≤ 80%) | B (80%< substrate protein remaining %≤ 100%) | A (0% ≤ substrate protein remaining % ≤ 80%) | A (0% ≤ substrate protein remaining % ≤ 80%) | B (80%< substrate protein remaining %≤ 100%) | A (0% ≤ substrate protein remaining % ≤ 80%) | – | – | – | – | – | – | 40 to 60 | 40 to 60 | 20 to 30 | 30 to 42
7 | Cc1cc2c(C3=CCN(Cc4ccc5c(c4)CN(N4CCC(=O)NC4=O)C5=O)CC3)ncnc2s1 [GT-08157, 1-(5-((4-(6-methylthieno[2,3-d]pyrimidin-4-yl)-3,6-dihydropyridin-1(2H)-yl)methyl)-1-oxoisoindolin-2-yl)dihydropyrimidine-2,4(1H,3H)-dione] | – | – | – | – | – | – | 20 to 40 | 15 to 20 | – | – | 15 to 18 | 25 to 40 | 18 to 25 | 80 to 100 | -5 to 0 | 80 to 100
8 | Cc1nc(C2=CCN(Cc3ccc4c(c3)CN(N3CCC(=O)NC3=O)C4=O)CC2)c2ccsc2n1 [GT-08175, 1-(5-((4-(2-methylthieno[2,3-d]pyrimidin-4-yl)-3,6-dihydropyridin-1(2H)-yl)methyl)-1-oxoisoindolin-2-yl)dihydropyrimidine-2,4(1H,3H)-dione] | – | – | – | – | – | – | – | – | – | – | – | – | 18 to 25 | 80 to 100 | -10 to -5 | 80 to 100
9 | O=C1CCN(N2Cc3cc(CN4CC=C(c5ncnc6sc7c(c56)CCCC7)CC4)ccc3C2=O)C(=O)N1 [GT-08178, 1-(1-oxo-5-((4-(5,6,7,8-tetrahydrobenzo[4,5]thieno[2,3-d]pyrimidin-4-yl)-3,6-dihydropyridin-1(2H)-yl)methyl)isoindolin-2-yl)dihydropyrimidine-2,4(1H,3H)-dione] | – | – | – | – | – | – | 40 to 60 | 20 to 40 | – | – | 18 to 25 | 18 to 25 | 60 to 80 | 80 to 100 | 60 to 80 | 60 to 80
10 | Cc1nc(C2=CCN(Cc3ccc4c(c3)C(=O)N(N3CCC(=O)NC3=O)C4=O)CC2)c2c(-c3ccccc3)csc2n1 [GT-08484, 2-(2,4-dioxotetrahydropyrimidin-1(2H)-yl)-5-((4-(2-methyl-5-phenylthieno[2,3-d]pyrimidin-4-yl)-3,6-dihydropyridin-1(2H)-yl)methyl)isoindoline-1,3-dione] | A (0% ≤ substrate protein remaining % ≤ 80%) | A (0% ≤ substrate protein remaining % ≤ 80%) | A (0% ≤ substrate protein remaining % ≤ 80%) | A (0% ≤ substrate protein remaining % ≤ 80%) | A (0% ≤ substrate protein remaining % ≤ 80%) | A (0% ≤ substrate protein remaining % ≤ 80%) | 20 to 40 | 15 to 20 | – | – | – | – | – | – | 42 to 60 | 20 to 30
